pKi: −log10 of the molar value.
Key:
[1] = biological target: bovine milk xanthine oxidoreductase (bXOR) (Bos taurus, UniProt P80457); assay: steady-state kinetics, xanthine-NAD+ activity, uric acid absorbance at […] nm; type: biochemical
[2] = biological target: T1, Rhodobacter capsulatus xanthine oxidoreductase (RcXOR) (Rhodobacter capsulatus, UniProt O54051); assay: steady-state kinetics, Lineweaver-Burk plots of xanthine-NAD+ activity; type: biochemical
T1 sequence (O54051 1-777): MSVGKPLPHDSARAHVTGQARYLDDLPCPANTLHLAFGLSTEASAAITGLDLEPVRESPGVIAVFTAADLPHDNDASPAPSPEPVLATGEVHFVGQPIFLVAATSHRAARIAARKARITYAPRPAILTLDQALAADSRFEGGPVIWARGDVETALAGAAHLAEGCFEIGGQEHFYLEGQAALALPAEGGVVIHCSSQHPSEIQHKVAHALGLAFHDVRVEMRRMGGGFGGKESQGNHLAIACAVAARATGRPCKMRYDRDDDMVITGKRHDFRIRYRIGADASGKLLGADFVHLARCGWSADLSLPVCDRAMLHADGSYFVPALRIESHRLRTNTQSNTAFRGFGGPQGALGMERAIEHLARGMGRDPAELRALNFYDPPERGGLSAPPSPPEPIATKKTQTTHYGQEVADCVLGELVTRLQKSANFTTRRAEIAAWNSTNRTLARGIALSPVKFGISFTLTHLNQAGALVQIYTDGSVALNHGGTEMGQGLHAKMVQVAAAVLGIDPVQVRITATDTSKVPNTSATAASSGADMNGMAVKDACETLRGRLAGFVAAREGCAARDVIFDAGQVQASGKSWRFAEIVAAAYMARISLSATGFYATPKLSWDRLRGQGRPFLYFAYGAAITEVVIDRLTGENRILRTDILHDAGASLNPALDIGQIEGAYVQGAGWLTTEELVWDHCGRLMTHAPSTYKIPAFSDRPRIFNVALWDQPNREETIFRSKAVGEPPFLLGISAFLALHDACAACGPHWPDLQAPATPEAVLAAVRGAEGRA
T1 sequence (O54050 1-462 partner): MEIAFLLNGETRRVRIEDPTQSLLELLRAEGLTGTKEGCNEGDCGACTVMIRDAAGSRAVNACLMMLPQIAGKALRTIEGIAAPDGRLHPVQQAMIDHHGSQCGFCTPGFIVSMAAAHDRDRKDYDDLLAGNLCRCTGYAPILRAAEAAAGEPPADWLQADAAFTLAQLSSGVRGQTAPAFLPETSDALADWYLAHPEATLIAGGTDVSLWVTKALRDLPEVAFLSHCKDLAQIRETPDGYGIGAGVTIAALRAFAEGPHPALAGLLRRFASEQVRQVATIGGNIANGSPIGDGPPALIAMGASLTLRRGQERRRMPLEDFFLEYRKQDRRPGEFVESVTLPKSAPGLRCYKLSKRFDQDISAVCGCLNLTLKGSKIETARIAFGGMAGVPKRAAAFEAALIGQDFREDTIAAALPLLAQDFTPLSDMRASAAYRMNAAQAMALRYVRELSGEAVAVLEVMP

bovine milk xanthine oxidoreductase (bXOR), sequence (P80457 2-1332): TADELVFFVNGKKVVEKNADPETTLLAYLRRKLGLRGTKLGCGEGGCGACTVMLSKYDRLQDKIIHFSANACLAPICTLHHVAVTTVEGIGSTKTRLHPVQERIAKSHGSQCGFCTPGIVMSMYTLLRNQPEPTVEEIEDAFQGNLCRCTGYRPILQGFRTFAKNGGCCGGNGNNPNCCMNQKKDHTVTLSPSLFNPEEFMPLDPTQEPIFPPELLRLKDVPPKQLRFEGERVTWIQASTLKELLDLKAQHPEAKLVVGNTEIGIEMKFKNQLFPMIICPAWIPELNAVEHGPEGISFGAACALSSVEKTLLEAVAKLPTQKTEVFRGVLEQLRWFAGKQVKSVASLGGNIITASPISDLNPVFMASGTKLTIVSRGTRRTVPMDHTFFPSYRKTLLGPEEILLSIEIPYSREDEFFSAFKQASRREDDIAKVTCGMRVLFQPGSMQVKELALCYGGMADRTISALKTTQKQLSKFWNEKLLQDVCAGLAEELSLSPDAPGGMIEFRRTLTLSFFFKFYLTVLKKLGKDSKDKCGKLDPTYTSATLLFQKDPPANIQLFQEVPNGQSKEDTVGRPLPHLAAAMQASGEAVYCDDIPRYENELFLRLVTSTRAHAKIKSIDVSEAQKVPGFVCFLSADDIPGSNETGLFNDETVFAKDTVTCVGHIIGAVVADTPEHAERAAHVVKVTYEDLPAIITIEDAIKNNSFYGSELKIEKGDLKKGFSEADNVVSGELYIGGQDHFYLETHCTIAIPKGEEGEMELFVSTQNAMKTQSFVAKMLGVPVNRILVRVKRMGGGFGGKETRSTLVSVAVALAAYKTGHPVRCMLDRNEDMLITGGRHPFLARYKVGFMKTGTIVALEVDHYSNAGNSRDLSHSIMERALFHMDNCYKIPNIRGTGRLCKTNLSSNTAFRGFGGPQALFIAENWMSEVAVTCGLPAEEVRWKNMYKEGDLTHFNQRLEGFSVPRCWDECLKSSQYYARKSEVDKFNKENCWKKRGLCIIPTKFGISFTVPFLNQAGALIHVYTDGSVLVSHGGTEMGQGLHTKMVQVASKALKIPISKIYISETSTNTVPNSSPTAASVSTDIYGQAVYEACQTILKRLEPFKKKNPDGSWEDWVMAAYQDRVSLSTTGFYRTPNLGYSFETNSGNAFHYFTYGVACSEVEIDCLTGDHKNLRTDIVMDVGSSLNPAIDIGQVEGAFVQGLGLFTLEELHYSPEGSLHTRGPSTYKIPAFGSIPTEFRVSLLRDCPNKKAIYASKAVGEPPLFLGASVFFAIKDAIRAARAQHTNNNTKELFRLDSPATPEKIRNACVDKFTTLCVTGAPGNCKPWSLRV

**Q.** How did the “steady-state kinetics, xanthine-NAD+ activity, uric acid absorbance at 295 nm” value [1] turn out when `Cc1nc(-c2ccc(OCC(C)C)c(C#N)c2)sc1C(=O)O` [febuxostat] was run?
**A.** < 100 nM

**Q.** What about the pKi [2] of the same molecule?
**A.** 4.76
